“And” between values parts separate entries of the source, which are not always exact repeats. Equal values may be shown once.
Key:
Assay type in all cases: cell-based
C. autoethanogenum = assay: Balch tube batch growth of homoacetogen C. autoethanogenum on fructose, optical density; conditions: added 21 h after inoculation
Protocol: These compounds were first tested to determine their effect on a known homoacetogen. Each compound was tested in a series of batch experiments to determine the growth response of a homoacetogen to the presence of the compound at varying concentrations. The batch experiments were all conducted by anoxically filling a Balch tube with 5 ml of a fermentation medium having the composition given in Tables 2 and 3. To expedite results, these batch experiments used fructose as the growth nutrient source for bacteria. Thus, the media included a 5 g/L of fructose.
Each tube was inoculated with 0.5 ml of the same strain of C. autoethanogenum bacteria seed culture inoculum. The tubes were maintained at a temperature of 37° C. Twenty one hours after the inoculation of the tube with the bacteria, the different crotonate derivatives from Table 1 were added to different tubes in the amounts indicated in Table 4 This was at a time of early to mid-log phase growth for the bacteria. Each fermentation of the bacteria in the media at the different concentration of crotonate derivatives were allowed to progress and were monitored to determine the bacteria growth at selected intervals of time varying from approximately 20 hours to 190 hours. Growth at the intervals was measured by reading the optical density (OD) of the fermentation liquid. Optical density was measured using a Spectronic Spec 20 (Thermo Spectronic) at a wavelength of 600 nm. The OD of the Balch tube culture was measured directly in the tube using absorbance mode on the Spec 20 machine. The machine was set to zero absorbance by first measuring and adjusting the setting to zero absorbance using media only as a blank. This process was repeated at each indicated time point throughout the experiment. The ability of a tube fermentation at a particular concentration of crotonate derivative to reach a predetermined optical density was recorded in Table 4. Table 4 indicates the presence of bacterial growth to an OD of approximately 2 or above with a “+”, and to an optical density in a range of 0.5 to 1.5 as a “+/−”, and indicates the failure of bacterial growth to reach an optical density of approximately 0.5 as a “−”.

[1] = tested on: Clostridium tyrobutyricum; assay: Balch tube batch growth of strict butyrogen Clostridium tyrobutyricum on fructose, optical density; conditions: added 21 h after inoculation
Protocol: Similar experiments were conducted to make a preliminary determination as to which of the crotonate and crotonate-like compounds would act as butyrogen retardants. For this purpose the selected compounds were tested again in a series of batch experiments to determine the growth response of butyrogens to the presence of the compound at varying concentrations. The batch experiments were all conducted by anoxically filling a 20 ml Balch tube with 5 ml of a fermentation medium having the composition given in Tables 2 and 3. The media included 0.5 v/v final concentration of a fructose substrate. For each of the crotonate concentrations tested, duplicate test tubes were prepared.
Each tube was inoculated with 0.5 ml seed culture inoculum of the strict butyrogen Clostridium tyrobutyricum. The tubes were maintained at a temperature of 37° C. Twenty one hours after the inoculation of the tube with the bacteria, the different compounds from Table 1 were added to different tubes in the amounts indicated in Table 6. This was at a time of early to mid-log phase growth for the bacteria. Each fermentation of the bacteria in the media at the different concentration of crotonate derivatives were allowed to progress and were monitored to determine the bacteria growth at selected intervals of time varying from approximately 20 hours to 54 hours. Growth at the intervals was measured by reading the optical density (OD) of the fermentation liquid. Optical density was measured as described in Example 1. The ability of a tube fermentation at a particular concentration of crotonate derivative to reach a predetermined optical density was recorded in Table 6. Table 6 indicates the presence of bacterial growth to an OD of approximately 1.8 or above with a “+”, and to an optical density in a range of 0.7 to 1.5 as a “+/−”, and indicates the failure of bacterial growth to reach an optical density of approximately 0.7 as a “−”.

[2] = tested on: Clostridium tyrobutyricum; assay: Serum bottle batch fermentation of Clostridium tyrobutyricum on fructose, optical density; conditions: for O.D. Response: 5 mM, duplicates A and B
Protocol: Ethyl 3-(trifluoromethyl)benzoate is evaluated in a series of batch fermentations to determine the growth response of butyrogens to the presence of this compound at varying concentrations. The batch fermentations are conducted by anoxically filling 100 mL serum bottles with 15 mL of media having the composition given in Tables 12 and 13. About 0.15 mL of a 50% w/w solution of fructose in water (final fructose concentration about 5 g/L) is provided in the bottles. Duplicate runs are conducted for each concentration.
(§1) Each bottle is inoculated with 1.5 mL of seed culture inoculum of the strict butyrogen Clostridium tyrobutyricum, which has an OD of about 0.40 (which upon a 10 times dilution provides a starting OD for the fermentation of about 0.04). The bottles are maintained at a temperature of 37° C. Two hours after inoculation of the bottles with the bacteria, the compound is added to different bottles as a solution in 50 μL of N-methylpyrrolidone in the amounts indicated in Table 15. The fermentation process is allowed to progress at 37° C. At selected intervals of time, bacterial growth is measured by reading the optical density (OD) of the fermentation liquid. Optical density is measured by anoxically removing an aliquot of fermentation liquid and adding it to a disposable cuvette. OD's ranging between 0.01 and 0.4 are measured directly, while OD's greater than 0.4 are measure after performing a 1/10 dilution with water.
In this example ethyl 4,4,4-trifluoro-3-(trifluoromethyl)crotonate and ethyl 3-trifluoromethyl-4-methoxybenzoate are evaluated by batch fermentation. The batch fermentations are conducted by anoxically filling 100 mL serum bottles with 15 mL of media having the composition given in Tables 12 and 13. About 0.15 mL of a 50% w/w solution of fructose in water (final fructose concentration about 5 g/L) is provided in the bottles. Duplicate runs are conducted for each concentration.
as §1, with “of about 0.42 (which upon” for “of about 0.40 (which upon”, “of about 0.042). The bottles” for “of about 0.04). The bottles”, “in Table 16 and 17. The fermentation” for “in Table 15. The fermentation”, “0.4 are measured after performing” for “0.4 are measure after performing”

Row | Compound | Optical density valuation of C. autoethanogenum (C. autoethanogenum; 1 ppm(m)) | Optical density valuation of C. autoethanogenum (C. autoethanogenum; 5 ppm(m)) | Optical density valuation of C. autoethanogenum (C. autoethanogenum; 10 ppm(m)) | Optical density valuation of C. autoethanogenum (C. autoethanogenum; 50 ppm(m)) | Optical density valuation of C. autoethanogenum (C. autoethanogenum; 100 ppm(m)) | Optical density valuation of C. autoethanogenum (C. autoethanogenum; 500 ppm(m)) | Optical density valuation of C. autoethanogenum (C. autoethanogenum; 1000 ppm(m)) | Optical density valuation of C. autoethanogenum (C. autoethanogenum; 5000 ppm(m)) | Optical density valuation of C. autoethanogenum (C. autoethanogenum; 10000 ppm(m)) | Optical density valuation of C. tyrobutyricum ([1]; 100 ppm(m)) | Optical density valuation of C. tyrobutyricum ([1]; 500 ppm(m)) | Optical density valuation of C. tyrobutyricum ([1]; 1000 ppm(m)) | further results
1 | CCOC(=O)/C=C(\N)C(F)(F)F [B, ethyl-3-amino-4,4,4-trifluorocrotonate] | + (bacterial growth to an OD of approximately 2 or above) | + (bacterial growth to an OD of approximately 2 or above) | + (bacterial growth to an OD of approximately 2 or above) | + (bacterial growth to an OD of approximately 2 or above) | + (bacterial growth to an OD of approximately 2 or above) | + (bacterial growth to an OD of approximately 2 or above) | + (bacterial growth to an OD of approximately 2 or above) | +/− (to an optical density in a range of 0.5 to 1.5) | − (failure of bacterial growth to reach an optical density of approximately 0.5) | + (bacterial growth to an OD of approximately 1.8 or above) | + (bacterial growth to an OD of approximately 1.8 or above) | + (bacterial growth to an OD of approximately 1.8 or above) | O.D. Response to Varying Inhibitor Concentrations ([2]; 100 ppm, 22.5 Hours, added 25 h after inoculation): 0.84; O.D. Response to Varying Inhibitor Concentrations ([2]; 100 ppm, 28.5 Hours): 1.48; O.D. Response to Varying Inhibitor Concentrations ([2]; 100 ppm, 43.5 Hours): 1.53; O.D. Response to Varying Inhibitor Concentrations ([2]; 250 ppm, 22.5 Hours, added 25 h after inoculation): 0.86; O.D. Response to Varying Inhibitor Concentrations ([2]; 250 ppm, 28.5 Hours): 1.87; O.D. Response to Varying Inhibitor Concentrations ([2]; 250 ppm, 43.5 Hours): 1.92; O.D. Response to Varying Inhibitor Concentrations ([2]; 500 ppm, 22.5 Hours, added 25 h after inoculation): 0.80; O.D. Response to Varying Inhibitor Concentrations ([2]; 500 ppm, 28.5 Hours): 0.93; O.D. Response to Varying Inhibitor Concentrations ([2]; 500 ppm, 43.5 Hours): 1.00; O.D. Response to Varying Inhibitor Concentrations ([2]; 1000 ppm, 22.5 Hours, added 25 h after inoculation): 0.70; O.D. Response to Varying Inhibitor Concentrations ([2]; 1000 ppm, 28.5 Hours): 0.77; O.D. Response to Varying Inhibitor Concentrations ([2]; 1000 ppm, 43.5 Hours): 0.78
2 | CCOC(=O)C=C(C(F)(F)F)C(F)(F)F [Compound A, ethyl 4,4,4-trifluoro-3-(trifluoromethyl)crotonate] | + (bacterial growth to an OD of approximately 2 or above) | + (bacterial growth to an OD of approximately 2 or above) | + (bacterial growth to an OD of approximately 2 or above) | + (bacterial growth to an OD of approximately 2 or above) | + (bacterial growth to an OD of approximately 2 or above) | + (bacterial growth to an OD of approximately 2 or above) | + (bacterial growth to an OD of approximately 2 or above) | − (failure of bacterial growth to reach an optical density of approximately 0.5) | − (failure of bacterial growth to reach an optical density of approximately 0.5) | + (bacterial growth to an OD of approximately 1.8 or above) | +/− (to an optical density in a range of 0.7 to 1.5) | − (failure of bacterial growth to reach an optical density of approximately 0.7) | O.D. Response ([2]; 0 Hours, added 2 h after inoculation): 0.42; O.D. Response ([2]; 2 Hours, added 2 h after inoculation): 0.10; O.D. Response ([2]; 4.5 Hours): 0.14 and 0.11; O.D. Response ([2]; 6 Hours): 0.13; O.D. Response ([2]; 24 Hours): 0.12
3 | O=C(O)C=C(C(F)(F)F)C(F)(F)F [D, 4,4,4-trifluoro-3-(trifluoromethyl)crotonic acid] |  |  | + (bacterial growth to an OD of approximately 2 or above) |  | + (bacterial growth to an OD of approximately 2 or above) | + (bacterial growth to an OD of approximately 2 or above) | +/− (to an optical density in a range of 0.5 to 1.5) | − (failure of bacterial growth to reach an optical density of approximately 0.5) | − (failure of bacterial growth to reach an optical density of approximately 0.5) | + (bacterial growth to an OD of approximately 1.8 or above) | + (bacterial growth to an OD of approximately 1.8 or above) | + (bacterial growth to an OD of approximately 1.8 or above) | 

Reference: patent US20130071897A1, “METHOD FOR CONTROLLING UNDESIRABLE BYPRODUCTS FORMATION CAUSED BY CONTAMINATING ORGANISMS IN THE PRODUCTION OF ETHANOL FROM SYNGAS” (COSKATA, INC., priority 2011, published 2013)
